Assays:
Type in all cases: cell-based
MAPK [1] = test: MAPK binding fusion protein (first variant, mutated n-myc NLS) redistribution in transfected HeLa cells, ArrayScan II; conditions: for inhibition of the change in distribution of the fusion protein: 2 hours pretreatment with 10 uM inhibitor, then PMA; for change in localization of the fusion protein to the cytoplasm upon activation: serum starved 24 h, PMA 1.5 nM or sorbitol 200 mM, 1 hour
Excerpt: In this example, a fusion protein for detecting the availability for specific binding of MAPK, the protein of interest, is based on the distribution of the fusion protein between the cytoplasm and nucleus. It is constructed such that the detection domain is a GFP, the first localization sequence is a mutated NLS from n-myc, the second localization sequence is an NES from MAPKAP2, and the binding domain is the MAPK binding domain from RSK-1. The NLS and MAPK binding domain are separated by 2 amino acids. Operationally, the binding of MAPK to the binding domain blocks the localization of this fusion protein into the nucleus. […] Contacting the cell with a compound that activates MAPK, such as PMA or serum, will activate MAPK by inducing a dissociation of MAPK from MEK1, thus making MAPK available for binding to the RSK-1 binding domain in the fusion protein, and will shift the distribution of the fusion protein from the nucleus to the cytoplasm.
As shown below, this fusion protein was constructed using a GFP, a mutated nuclear localization signal from n-myc, based on human n-myc (Genbank accession number Y00664), the sequence from Proline 315 to Alanine 361 of MAPKAP2 (Genbank accession number X76850), which includes a nuclear export signal (between D^328 to E^351, SEQ ID NO:317), and the MAPK binding domain from RSK1 spanning from S^718 to T^733 (Genbank accession number L07597).
(§1) Protocol: HeLa cells were transiently transfected with the fusion protein. Cells were serum starved for 24 hours prior to treatment. Cells were then exposed to PMA (1.5 nM) or sorbitol (200 mM) for 1 hour. For inhibitor treatment, cells were pretreated for 2 hours with 10 uM inhibitor, and then treated with PMA, in parallel with non-inhibitor-treated cells. Cells were then treated with 3.7% formaldehyde & Hoechst 33342 for 20 minutes to fix and stain the nuclei, and then washed. Data was collected on ArrayScan II® (Cellomics, Inc. Pittsburgh, Pa.). […] Most, if not all, of the fusion protein was affected. The change in distribution was inhibitable by pretreatment of 10 uM PD98059, a specific inhibitor of MAPK activation, but not by SB203580, a specific inhibitor of p38 MAPK activation. Second Variant Protocol: HeLa cells were transiently transfected with the fusion protein. Cells were serum starved for 24 hours prior to treatment. Cells were exposed to serum (20%) or PMA (200 nM) for 2 hours. Cells were then treated with 3.7% formaldehyde & Hoechst 33342 for 20 minutes to fix and stain the nuclei, and then washed. Data was collected on ArrayScan II® (Cellomics, Inc. Pittsburgh, Pa.).

MAPK [2] = test: MAPK binding fusion protein (second variant, SV40 NLS) redistribution in transfected HeLa cells, ArrayScan II; conditions: serum starved 24 h, serum 20% or PMA 200 nM, 2 hours
Experimental: A variant of this MAPK binding fusion protein was also prepared. This fusion protein was constructed using a GFP, a nuclear localization signal from the SV 40 large T antigen (SEQ ID NO:145, Genbank accession number J02400), specifically P^126 to V^132, the sequence from Glutamic Acid 327 to Isoleucine 353 of MAPKAP2 (Genbank accession number X76850), which includes a nuclear export signal (between D^328 to E^351, SEQ ID NO:317), and the MAPK binding domain from RSK1, spanning from S^718 to T^733 (Genbank accession number L07597).
as §1, with “Second Variant Protocol: HeLa cells were transiently transfected with the fusion protein. Cells were serum starved for 24 hours prior to treatment. Cells were exposed to serum (20%) or PMA (200 nM) for 2 hours. Cells were then treated with 3.7% formaldehyde & Hoechst 33342 for 20 minutes to fix and stain the nuclei, and then washed. Data was collected on ArrayScan II® (Cellomics, Inc. Pittsburgh, Pa.).” left out

[3] = system: catalytic domain of cAMP-dependent protein kinase (cPKA); test: cAMP-dependent protein kinase interaction fusion protein redistribution (nucleus/cytoplasm) in transfected HeLa cells, ArrayScan II; conditions: serum starved 24 h, forskolin 2 h or PMA 1 h
Excerpt: In this example, a fusion protein for detecting the availability for specific binding of the catalytic domain of cAMP-dependent protein kinase (cPKA), the protein of interest, is based on the distribution of the fusion protein between the cytoplasm and nucleus. It is constructed such that the detection domain is a GFP, the first localization domain is the NLS from SV40 large T-antigen, the second localization domain is the NES from MAPKAP2, and the binding domain is from CREB. The NLS and the binding domain are separated by 2 amino acids. The fusion protein is introduced into cells via DNA transfection or retrovirus infection. The catalytic domain cPKA binds to the regulatory domain of PKA (rPKA) in the absence of cAMP. With an increase in the concentration of cAMP, cPKA dissociates from rPKA, enabling cPKA to bind to the fusion protein. Operationally, the binding of cPKA to the binding domain blocks the localization of this fusion protein into the nucleus. […] The ratio of these intensities can be readily measured. This fusion protein can detect cPKA binding in either the nucleus or cytoplasm. Contacting the cell with a compound that causes a separation of cPKA from rPKA, such as forskolin, via an increase cAMP, will shift the distribution of the fusion protein from the nucleus to the cytoplasm. […]

[4] = system: c-Jun N-terminal kinase (JNK); test: c-Jun N-terminal protein kinase fusion protein redistribution in transfected HeLa cells, ArrayScan II; conditions: for change in localization of the fusion protein to the cytoplasm upon activation: serum starved 24 h, anisomycin 500 nM, sorbitol 300 mM, TNF 100 ng/ml or staurosporine 1 uM, 1 hour
Excerpt: It is constructed such that the detection domain is a GFP, the first localization domain is a modified SV40 T antigen NLS, the second localization domain is an NES from MAPKAP2, and the binding domain is the JNK binding domain from c-jun. […] This example illustrates the detection and monitoring of a binding event induced to occur within the cell.
As shown below, this fusion protein was constructed using GFP, a modified nuclear localization signal from SV40 T antigen, the sequence from Proline 315 to Serine 362 of MAPKAP2 (Genbank accession number X76850), which includes a nuclear export signal (between D^328 to E^351, SEQ ID NO:317), and the sequence from P^30 to L^60 of c-Jun,(accession number J04111), which serves as the JNK binding domain.
Protocol: HeLa cells were transiently transfected with the fusion protein. Cells were serum starved for 24 hours prior to treatment. Cells were exposed to test compounds known to induce cell stress, including anisomycin (500 nM), sorbitol (300 mM), TNF (tumor necrosis factor, 100 ng/ml), or staurosporine (1 uM), for 1 hour. For inhibitor treatment, cells were pretreated for 2 hours with 10 uM inhibitor then treated with anisomycin, in parallel with non-inhibitor-treated cells. Cells were then treated with 3.7% formaldehyde & Hoechst 33342 for 20 minutes to fix and stain the nuclei, and then washed. Data was collected on ArrayScan II® (Cellomics, Inc. Pittsburgh, Pa.).

SMILES: COc1cccc(-c2cc(=O)c3ccccc3o2)c1N [PD98059]
- inhibition of the change in distribution of the fusion protein (MAPK [1]): inhibitable

SMILES: CCCCCCCCCCCCCC(=O)O[C@@H]1[C@@H](C)[C@@]2(O)[C@@H](C=C(CO)C[C@]3(O)C(=O)C(C)=C[C@@H]23)[C@@H]2C(C)(C)[C@]12OC(C)=O [PMA, Phorbol-12-Myristate-13-Acetate]
- change in localization of the fusion protein to the cytoplasm upon activation (MAPK [2]): led to a change in localization of the fusion protein to the cytoplasm
- change in localization of the fusion protein to the cytoplasm upon activation [3]: led to a change in localization of the fusion protein to the cytoplasm
- change in localization of the fusion protein to the cytoplasm upon activation (MAPK [1]): led to a change in localization of the fusion protein to the cytoplasm

SMILES: C[S+]([O-])c1ccc(-c2nc(-c3ccncc3)c(-c3ccc(F)cc3)[nH]2)cc1 (stereo not drawn) [SB203580]
- effect of inhibitor pretreatment on the change in distribution of the fusion protein ([4]; 2 hours pretreatment with 10 uM inhibitor, then anisomycin): not affected
- inhibition of the change in distribution of the fusion protein (MAPK [1]): not

SMILES: COc1ccc(C[C@H]2NC[C@H](O)[C@H]2OC(C)=O)cc1 [anisomycin]
- change in localization of the fusion protein to the cytoplasm upon activation [4]: led to a change in localization of the fusion protein to the cytoplasm

SMILES: OC[C@@H](O)[C@@H](O)[C@H](O)[C@@H](O)CO [sorbitol]
- change in localization of the fusion protein to the cytoplasm upon activation (MAPK [1]): did not induce a change in the localization of the fusion protein

SMILES: CN[C@@H]1C[C@H]2O[C@@](C)([C@@H]1OC)n1c3ccccc3c3c4c(c5c6ccccc6n2c5c31)C(=O)NC4 [staurosporine]
- change in localization of the fusion protein to the cytoplasm upon activation [4]: led to a change in localization of the fusion protein to the cytoplasm

Source: patent publication US7244614B2, “Fusion proteins and assays for molecular binding” (Cellomics, Inc., priority 2001, dated 2007)
